Measured values from US20030133987A1, “Drug nanoparticles from template emulsions” (priority 2002, published 2003).

Experiment: In-vitro dissolution, standard protocol according to USP 24 monographs
Format: physicochemical
Conditions: HPLC or UV/VIS detection, control (drug as received) in parenthesis
Experimental: The dissolution progress was measured after 5, 10, 15, and 60 minutes using either High Pressure Liquid Chromatography (HPLC) or UV/VIS detection as the analytical tools. […] For comparison, the corresponding data for the controls are given in parenthesis.

percent of dissolved sample, 5 min (5 min): 31%
percent of dissolved sample, 10 min (10 min): 41%
percent of dissolved sample, 15 min (15 min): 48%
percent of dissolved sample, 60 min (60 min): (100%)
Structure (SMILES): CC(=O)N1CCN(c2ccc(OCC3COC(Cn4ccnc4)(c4ccc(Cl)cc4Cl)O3)cc2)CC1 (stereo not shown) [Ketoconazole, ketoconazole]
